Measured values as given in the supplement of paper PMC10307832.

Tests used:
Test in all cases: relative viability (nuclei count vs DMSO), 5 days (fraction); higher = more cells survive
CAL-12T = system: CAL-12T
Summary of the method: (§1)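 Values are medians from duplicate plates. Each reflects relative viability, defined as the nuclei count of treated wells over that of vehicle wells. Lung cancer cell lines in 1536-well plates were pin-tool dosed one day after seeding with one drug alone or with a fixed anchor-drug dose plus five library-drug doses (not always all listed) in √10 steps, then fixed, stained and imaged at 4× after 5 days.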

COR-L 105 = system: COR-L 105
Summary of the method: as §1

NCI-H1915 = system: NCI-H1915
Summary of the method: as §1

HCC-827 = system: HCC-827
Summary of the method: as §1

HCC-366 = system: HCC-366
Summary of the method: as §1

NCI-H1437 = system: NCI-H1437
Summary of the method: as §1

NCI-H1395 = system: NCI-H1395
Summary of the method: as §1

NCI-H460 = system: NCI-H460
Summary of the method: as §1

HOP-62 = system: HOP-62
Summary of the method: as §1

NCI-H23 = system: NCI-H23
Summary of the method: as §1

SK-LU-1 = system: SK-LU-1
Summary of the method: as §1

NCI-H2009 = system: NCI-H2009
Summary of the method: as §1

LCLC-103H = system: LCLC-103H
Summary of the method: as §1

A-427 = system: A-427
Summary of the method: as §1

NCI-H2228 = system: NCI-H2228
Summary of the method: as §1

NCI-H1755 = system: NCI-H1755
Summary of the method: as §1

NCI-H727 = system: NCI-H727
Summary of the method: as §1

EMC-BAC-2 = system: EMC-BAC-2
Summary of the method: as §1

HARA = system: HARA
Summary of the method: as §1

NCI-H1975 = system: NCI-H1975
Summary of the method: as §1

NCI-H1355 = system: NCI-H1355
Summary of the method: as §1

SW 1573 = system: SW 1573
Summary of the method: as §1

Molecule Oc1nc(-c2ccc(C(F)(F)F)cc2)nc2c1CSCC2 [XAV939] + COc1cc2c(Oc3ccc(NC(=O)C4(C(=O)Nc5ccc(F)cc5)CC4)cc3F)ccnc2cc1OCCCN1CCOCC1 [Foretinib] (partner 0.25 µM) has a relative viability (CAL-12T; first compound 0.08 µM) of 1.06, a relative viability (CAL-12T; first compound 0.253 µM) of 1.06 and a relative viability (CAL-12T; first compound 0.8 µM) of 1.15. The relative viability (CAL-12T; first compound 2.53 µM) was 1.09, the relative viability (COR-L 105; first compound 0.08 µM) was 1.17 and the relative viability (COR-L 105; first compound 0.253 µM) was 1.06. For the same molecule, the relative viability (COR-L 105; first compound 0.8 µM) was 1.14, the relative viability (COR-L 105; first compound 2.53 µM) was 0.964 and the relative viability (NCI-H1915; first compound 0.08 µM) was 1.18. The relative viability (NCI-H1915; first compound 0.253 µM) was 1.11, the relative viability (NCI-H1915; first compound 0.8 µM) was 1.08 and the relative viability (NCI-H1915; first compound 2.53 µM) was 1.03. For the same molecule, the relative viability (HCC-827; first compound 0.08 µM) was 1.11, the relative viability (HCC-827; first compound 0.253 µM) was 0.996 and the relative viability (HCC-827; first compound 0.8 µM) was 1.06. For the same molecule, the relative viability (HCC-827; first compound 2.53 µM) was 0.989, the relative viability (HCC-366; first compound 0.08 µM) was 0.91 and the relative viability (HCC-366; first compound 0.253 µM) was 0.877. It also gave a relative viability (HCC-366; first compound 0.8 µM) of 0.933, a relative viability (HCC-366; first compound 2.53 µM) of 0.941 and a relative viability (NCI-H1437; first compound 0.08 µM) of 1.3. The relative viability (NCI-H1437; first compound 0.253 µM) was 1.18, the relative viability (NCI-H1437; first compound 0.8 µM) was 1.21 and the relative viability (NCI-H1437; first compound 2.53 µM) was 0.989. It also gave a relative viability (NCI-H1395; first compound 0.08 µM) of 1.07, a relative viability (NCI-H1395; first compound 0.253 µM) of 0.783 and a relative viability (NCI-H1395; first compound 0.8 µM) of 1. The relative viability (NCI-H1395; first compound 2.53 µM) was 0.961, the relative viability (NCI-H460; first compound 0.08 µM) was 1.01 and the relative viability (NCI-H460; first compound 0.253 µM) was 0.926. The relative viability (NCI-H460; first compound 0.8 µM) was 0.999, the relative viability (NCI-H460; first compound 2.53 µM) was 0.922 and the relative viability (HOP-62; first compound 0.08 µM) was 1.23. For the same molecule, the relative viability (HOP-62; first compound 0.253 µM) was 1.04, the relative viability (HOP-62; first compound 0.8 µM) was 0.996 and the relative viability (HOP-62; first compound 2.53 µM) was 0.943. It also gave a relative viability (NCI-H23; first compound 0.08 µM) of 1.08, a relative viability (NCI-H23; first compound 0.253 µM) of 0.844 and a relative viability (NCI-H23; first compound 0.8 µM) of 0.868. It also gave a relative viability (NCI-H23; first compound 2.53 µM) of 0.962, a relative viability (SK-LU-1; first compound 0.08 µM) of 0.861 and a relative viability (SK-LU-1; first compound 0.253 µM) of 0.756. It also gave a relative viability (SK-LU-1; first compound 0.8 µM) of 0.883, a relative viability (SK-LU-1; first compound 2.53 µM) of 0.78 and a relative viability (NCI-H2009; first compound 0.08 µM) of 1.32. For the same molecule, the relative viability (NCI-H2009; first compound 0.253 µM) was 1.21, the relative viability (NCI-H2009; first compound 0.8 µM) was 1.18 and the relative viability (NCI-H2009; first compound 2.53 µM) was 1.16. The relative viability (LCLC-103H; first compound 0.08 µM) was 0.853, the relative viability (LCLC-103H; first compound 0.253 µM) was 0.643 and the relative viability (LCLC-103H; first compound 0.8 µM) was 0.748. The relative viability (LCLC-103H; first compound 2.53 µM) was 0.659, the relative viability (A-427; first compound 0.08 µM) was 1.26 and the relative viability (A-427; first compound 0.253 µM) was 1.07. It also gave a relative viability (A-427; first compound 0.8 µM) of 1.04, a relative viability (A-427; first compound 2.53 µM) of 0.862 and a relative viability (NCI-H2228; first compound 0.08 µM) of 0.98. For the same molecule, the relative viability (NCI-H2228; first compound 0.253 µM) was 0.874, the relative viability (NCI-H2228; first compound 0.8 µM) was 0.91 and the relative viability (NCI-H2228; first compound 2.53 µM) was 0.847. The relative viability (NCI-H1755; first compound 0.08 µM) was 0.891, the relative viability (NCI-H1755; first compound 0.253 µM) was 0.787 and the relative viability (NCI-H1755; first compound 0.8 µM) was 0.815. For the same molecule, the relative viability (NCI-H1755; first compound 2.53 µM) was 0.809, the relative viability (NCI-H727; first compound 0.08 µM) was 0.997 and the relative viability (NCI-H727; first compound 0.253 µM) was 0.774. The relative viability (NCI-H727; first compound 0.8 µM) was 0.821, the relative viability (NCI-H727; first compound 2.53 µM) was 0.928 and the relative viability (EMC-BAC-2; first compound 0.08 µM) was 1.05. It also gave a relative viability (EMC-BAC-2; first compound 0.253 µM) of 0.747, a relative viability (EMC-BAC-2; first compound 0.8 µM) of 0.848 and a relative viability (EMC-BAC-2; first compound 2.53 µM) of 0.553. For the same molecule, the relative viability (HARA; first compound 0.08 µM) was 1.03, the relative viability (HARA; first compound 0.253 µM) was 0.79 and the relative viability (HARA; first compound 0.8 µM) was 0.248. For the same molecule, the relative viability (HARA; first compound 2.53 µM) was 0.678, the relative viability (NCI-H1975; first compound 0.08 µM) was 0.858 and the relative viability (NCI-H1975; first compound 0.253 µM) was 0.696. The relative viability (NCI-H1975; first compound 0.8 µM) was 0.691, the relative viability (NCI-H1975; first compound 2.53 µM) was 0.756 and the relative viability (NCI-H1355; first compound 0.08 µM) was 0.946. The relative viability (NCI-H1355; first compound 0.253 µM) was 0.839, the relative viability (NCI-H1355; first compound 0.8 µM) was 0.786 and the relative viability (NCI-H1355; first compound 2.53 µM) was 0.619. For the same molecule, the relative viability (SW 1573; first compound 0.08 µM) was 1.2, the relative viability (SW 1573; first compound 0.253 µM) was 0.816 and the relative viability (SW 1573; first compound 0.8 µM) was 0.732. The relative viability (SW 1573; first compound 2.53 µM) was 0.788.
